Test results reported in US9320739B2 (AMBIT BIOSCIENCES CORPORATION, priority 2008, dated 2016).

system: panel of 290 distinct kinases (321 in the larger panel), excluding mutant variants; conditions: asterisk: panel of 321 distinct kinases
Procedure: Competition binding assays used herein were developed, validated and performed as described in Fabian et al., Nature Biotechnology 2005, 23, 329-336. […] The liganded beads were blocked with excess biotin and washed with blocking buffer (SeaBlock (Pierce), 1% BSA, 0.05% Tween 20, 1 mM DTT) to remove unbound ligand and to reduce non-specific binding. […] Test compounds were prepared as 100× stocks in DMSO and rapidly diluted into the aqueous environment. DMSO was added to control assays lacking a test compound. Primary screen interactions were performed in polypropylene 384-well plates in a final volume of 34 μL, while Kd determinations were performed in polystyrene 96-well plates in a final volume of 135 pt. […] The kinase concentration in the eluates was measured by quantitative PCR. Each kinase was tested individually against each compound. Kds were determined using eleven serial threefold dilutions. A selectivity score, which is a quantitative measure of selectivity of a compound against a panel of enzymes, may be calculated for a compound by dividing the number of enzymes for which a compound meets a set criteria, (for example, a binding constant of 100 nM or less), by the total number of enzymes tested. […] (Note, for those compounds tested in a larger kinase panel, as indicated by an asterisk (*) next to the S35 score, the divisor is 321 (i.e. the larger panel contains 321 distinct kinases, excluding mutant variants.)).

Row | Structure (SMILES) | S35
1 | COCCOc1cc2ncnc(Oc3cccc(NC(=O)Nc4cc(C(F)(F)F)nn4-c4ccccc4)c3)c2cc1OC [Ex 221, 1-{3-[6-methoxy-7-(2-methoxyethoxy)quinazolin-4-yloxy]phenyl}-3-[1-phenyl-3-(trifluoromethyl)-1H-pyrazol-5-yl]urea] | C * (0.20 < C ≦ 0.40)
2 | COCCOc1cc2ncnc(Sc3cccc(NC(=O)Nc4cc(C(F)(F)F)nn4-c4ccc(C)cc4)c3)c2cc1OC [Ex 243, 1-{3-[6-methoxy-7-(2-methoxyethoxy)quinazolin-4-ylthio]phenyl}-3-[1-p-tolyl-3-(trifluoromethyl)-1H-pyrazol-5-yl]urea] | C * (0.20 < C ≦ 0.40)

same assay, conditions: asterisk: panel of 321 distinct kinases; fraction of kinases inhibited 65% or greater

Row | Structure (SMILES) | S35
3 | COc1cc2ncnc(Sc3cccc(NC(=O)Nc4cc(C(F)(F)F)n(-c5ccccc5)n4)c3)c2cc1OC [Ex 170, 1-[3-(6,7-dimethoxyquinazolin-4-ylthio)phenyl]-3-[1-phenyl-5-(trifluoromethyl)-1H-pyrazol-3-yl]urea] | B* (0.10 < B ≦ 0.20)

same assay, conditions: no asterisk: panel of 290 distinct kinases

Row | Structure (SMILES) | S35
4 | COc1cc2ncnc(Oc3cccc(NC(=O)Nc4cc(C(C)(F)F)nn4-c4ccccc4)c3)c2cc1OC [Ex 318, 1-(3-(1,1-difluoroethyl)-1-phenyl-1H-pyrazol-5-yl)-3-(3-(6,7-dimethoxyquinazolin-4-yloxy)phenyl)urea] | C (0.20 < C ≦ 0.40)
5 | COc1cc2ncnc(Sc3cccc(NC(=O)Nc4cc(C(C)(C)C)nn4CC(C)C)c3)c2cc1OC [Ex 333, 1-(3-tert-butyl-1-isobutyl-1H-pyrazol-5-yl)-3-(3-(6,7-dimethoxyquinazolin-4-ylthio)phenyl)urea] | C (0.20 < C ≦ 0.40)
6 | COc1cc2ncnc(Oc3cccc(NC(=O)Nc4cc(C(C)C)nn4-c4cccnc4)c3)c2cc1OC [Ex 350, 1-(3-(6,7-dimethoxyquinazolin-4-yloxy)phenyl)-3-(3-isopropyl-1-(pyridin-3-yl)-1H-pyrazol-5-yl)urea] | D (D > 0.40)
7 | COc1cc2ncnc(Oc3cccc(NC(=O)Nc4cc(C(C)(C)C)nn4-c4ccc(C)nc4)c3)c2cc1OC [Ex 312, 1-(3-tert-butyl-1-(6-methylpyridin-3-yl)-1H-pyrazol-5-yl)-3-(3-(6,7-dimethoxyquinazolin-4-yloxy)phenyl)urea] | D (D > 0.40)
8 | COc1cc2ncnc(Oc3cccc(NC(=O)Nc4cc(C(C)(C)C)nn4-c4cccnc4)c3)c2cc1OC [Ex 322, 1-(3-tert-butyl-1-(pyridin-3-yl)-1H-pyrazol-5-yl)-3-(3-(6,7-dimethoxyquinazolin-4-yloxy)phenyl)urea] | D (D > 0.40)
9 | COc1cc2ncnc(Sc3cccc(NC(=O)Nc4cc(C(C)(C)C)nn4-c4ccccc4Cl)c3)c2cc1OC [Ex 341, 1-(3-tert-butyl-1-(2-chlorophenyl)-1H-pyrazol-5-yl)-3-(3-(6,7-dimethoxyquinazolin-4-ylthio)phenyl)urea] | C (0.20 < C ≦ 0.40)
10 | COc1cc2ncnc(Oc3cccc(NC(=O)Nc4cc(C5CC5)nn4-c4ccccc4)c3)c2cc1OC [Ex 353, 1-(3-cyclopropyl-1-phenyl-1H-pyrazol-5-yl)-3-(3-(6,7-dimethoxyquinazolin-4-yloxy)phenyl)urea] | C (0.20 < C ≦ 0.40)
11 | COc1cc2ncnc(Sc3cccc(NC(=O)Nc4cc(C(C)(F)F)nn4-c4ccccc4)c3)c2cc1OC [Ex 319, 1-(3-(1,1-difluoroethyl)-1-phenyl-1H-pyrazol-5-yl)-3-(3-(6,7-dimethoxyquinazolin-4-ylthio)phenyl)urea] | C (0.20 < C ≦ 0.40)
12 | COc1cc2ncnc(Oc3cccc(NC(=O)Nc4cc(C(C)(C)C)nn4-c4cncc(F)c4)c3)c2cc1OC [Ex 326, 1-(3-tert-butyl-1-(5-fluoropyridin-3-yl)-1H-pyrazol-5-yl)-3-(3-(6,7-dimethoxyquinazolin-4-yloxy)phenyl)urea] | D (D > 0.40)
13 | COc1cc2ncnc(Sc3cccc(NC(=O)Nc4cc(C(C)C)nn4-c4ccccc4)c3)c2cc1OC [Ex 325, 1-(3-(6,7-dimethoxyquinazolin-4-ylthio)phenyl)-3-(3-isopropyl-1-phenyl-1H-pyrazol-5-yl)urea] | C (0.20 < C ≦ 0.40)
14 | CCc1cc(NC(=O)Nc2cccc(Oc3ncnc4cc(OC)c(OC)cc34)c2)n(-c2ccccc2)n1 [Ex 352, 1-(3-(6,7-dimethoxyquinazolin-4-yloxy)phenyl)-3-(3-ethyl-1-phenyl-1H-pyrazol-5-yl)urea] | C (0.20 < C ≦ 0.40)
15 | COc1cc2ncnc(Oc3cccc(NC(=O)Nc4cc(C(C)(C)C(F)(F)F)nn4-c4ccccc4)c3)c2cc1OC [Ex 306, 1-(3-(6,7-dimethoxyquinazolin-4-yloxy)phenyl)-3-(1-phenyl-3-(1,1,1-trifluoro-2-methylpropan-2-yl)-1H-pyrazol-5-yl)urea] | D (D > 0.40)
16 | COc1cc2nc(Cl)nc(Oc3cccc(NC(=O)Nc4cc(C(C)(C)C)on4)c3)c2cc1OC [Ex 310, 1-(5-tert-butylisoxazol-3-yl)-3-(3-(2-chloro-6,7-dimethoxyquinazolin-4-yloxy)phenyl)urea] | A (A ≦ 0.10)
17 | COc1cc2ncnc(Oc3cccc(NC(=O)Nc4cc(C(C)(C)C)nn4-c4cccnc4C)c3)c2cc1OC [Ex 305, 1-(3-tert-butyl-1-(2-methylpyridin-3-yl)-1H-pyrazol-5-yl)-3-(3-(6,7-dimethoxyquinazolin-4-yloxy)phenyl)urea] | D (D > 0.40)
18 | COc1cc2ncnc(Sc3cccc(NC(=O)Nc4cc(C(C)C)nn4-c4cccnc4)c3)c2cc1OC [Ex 351, 1-(3-(6,7-dimethoxyquinazolin-4-ylthio)phenyl)-3-(3-isopropyl-1-(pyridin-3-yl)-1H-pyrazol-5-yl)urea] | C (0.20 < C ≦ 0.40)
19 | COc1cc2ncnc(Oc3cccc(NC(=O)Nc4cc(C(C)(C)C#N)nn4-c4ccccc4)c3)c2cc1OC [Ex 308, 1-(3-(2-cyanopropan-2-yl)-1-phenyl-1H-pyrazol-5-yl)-3-(3-(6,7-dimethoxyquinazolin-4-yloxy)phenyl)urea] | D (D > 0.40)
20 | COc1cc2ncnc(Sc3cccc(NC(=O)Nc4cc(C(C)(C)C)nn4-c4ccccc4C)c3)c2cc1OC [Ex 343, 1-(3-tert-butyl-1-o-tolyl-1H-pyrazol-5-yl)-3-(3-(6,7-dimethoxyquinazolin-4-ylthio)phenyl)urea] | C (0.20 < C ≦ 0.40)
21 | COc1cc2ncnc(Sc3cccc(NC(=O)Nc4cc(C(C)(C)C)nn4C(C)C)c3)c2cc1OC [Ex 335, 1-(3-tert-butyl-1-isopropyl-1H-pyrazol-5-yl)-3-(3-(6,7-dimethoxyquinazolin-4-ylthio)phenyl)urea] | C (0.20 < C ≦ 0.40)
22 | COc1cc2ncnc(Sc3cccc(NC(=O)Nc4cc(C(C)(C)C)nn4C4CCCCC4)c3)c2cc1OC [Ex 331, 1-(3-tert-butyl-1-cyclohexyl-1H-pyrazol-5-yl)-3-(3-(6,7-dimethoxyquinazolin-4-ylthio)phenyl)urea] | B (0.10 < B ≦ 0.20)
23 | COc1cc2ncnc(Oc3cccc(NC(=O)Nc4cc(C(C)(C)C)nn4-c4ccccc4C)c3)c2cc1OC [Ex 342, 1-(3-tert-butyl-1-o-tolyl-1H-pyrazol-5-yl)-3-(3-(6,7-dimethoxyquinazolin-4-yloxy)phenyl)urea] | D (D > 0.40)
24 | COc1cc2ncnc(Oc3cccc(NC(=O)Nc4cc(C(C)(F)F)nn4-c4cccnc4)c3)c2cc1OC [Ex 311, 1-(3-(1,1-difluoroethyl)-1-(pyridin-3-yl)-1H-pyrazol-5-yl)-3-(3-(6,7-dimethoxyquinazolin-4-yloxy)phenyl)urea] | C (0.20 < C ≦ 0.40)
25 | COc1cc2ncnc(Oc3cccc(NC(=O)Nc4cc(C(C)C)nn4-c4cncc(F)c4)c3)c2cc1OC [Ex 314, 1-(3-(6,7-dimethoxyquinazolin-4-yloxy)phenyl)-3-(1-(5-fluoropyridin-3-yl)-3-isopropyl-1H-pyrazol-5-yl)urea] | D (D > 0.40)
26 | COc1cc2ncnc(Sc3cccc(NC(=O)Nc4cc(C(C)(C)C)nn4-c4cccnc4)c3)c2cc1OC [Ex 323, 1-(3-tert-butyl-1-(pyridin-3-yl)-1H-pyrazol-5-yl)-3-(3-(6,7-dimethoxyquinazolin-4-ylthio)phenyl)urea] | D (D > 0.40)
27 | COc1cc2ncnc(Oc3cccc(NC(=O)Nc4cc(C(C)(C)C)nn4C(C)C)c3)c2cc1OC [Ex 334, 1-(3-tert-butyl-1-isopropyl-1H-pyrazol-5-yl)-3-(3-(6,7-dimethoxyquinazolin-4-yloxy)phenyl)urea] | C (0.20 < C ≦ 0.40)
28 | COc1cc2ncnc(Oc3cccc(NC(=O)Nc4cc(C5CCC5)nn4-c4ccccc4)c3)c2cc1OC [Ex 355, 1-(3-cyclobutyl-1-phenyl-1H-pyrazol-5-yl)-3-(3-(6,7-dimethoxyquinazolin-4-yloxy)phenyl)urea] | C (0.20 < C ≦ 0.40)
29 | COc1cc2ncnc(Oc3cccc(NC(=O)Nc4cc(C(C)(C)C)nn4-c4ccccn4)c3)c2cc1OC [Ex 344, 1-(3-tert-Butyl-1-(pyridin-2-yl)-1H-pyrazol-5-yl)-3-(3-(6,7-dimethoxyquinazolin-4-yloxy)phenyl)urea] | C (0.20 < C ≦ 0.40)
30 | COc1cc2ncnc(Oc3cccc(NC(=O)Nc4cc(C(C)(C)C)nn4-c4ccc(C#N)cc4)c3)c2cc1OC [Ex 328, 1-(3-tert-butyl-1-(4-cyanophenyl)-1H-pyrazol-5-yl)-3-(3-(6,7-dimethoxyquinazolin-4-yloxy)phenyl)urea] | D (D > 0.40)
31 | COc1cc2ncnc(Oc3cccc(NC(=O)Nc4cc(C5(C(F)(F)F)CC5)nn4-c4ccc(C)cc4)c3)c2cc1OC [Ex 346, 1-(3-(6,7-dimethoxyquinazolin-4-yloxy)phenyl)-3-(1-p-tolyl-3-(1-(trifluoromethyl)cyclopropyl)-1H-pyrazol-5-yl)urea] | D (D > 0.40)
32 | COc1cc2ncnc(Sc3cccc(NC(=O)Nc4cc(C(F)(F)F)nn4-c4cccc(C)c4)c3)c2cc1OC [Ex 339, 1-(3-(6,7-dimethoxyquinazolin-4-ylthio)phenyl)-3-(1-m-tolyl-3-(trifluoromethyl)-1H-pyrazol-5-yl)urea] | C (0.20 < C ≦ 0.40)

same assay, conditions: no asterisk: panel of 290 distinct kinases; fraction of kinases inhibited 65% or greater

Row | Structure (SMILES) | S35
33 | COc1cc2c(Sc3cccc(NC(=O)Nc4cc(C(C)(C)C)on4)c3)ncnc2cc1OCCN1CCN(CCO)CC1 [Ex 84, 1-(5-tert-butylisoxazol-3-yl)-3-(3-(7-(2-(4-(2-hydroxyethyl)piperazin-1-yl)ethoxy)-6-methoxyquinazolin-4-ylthio)phenyl)urea] | D (D > 0.40)
